Experiments:
[1] = target: Cruzipain (Trypanosoma cruzi) (UniProt P25779); experiment: Inhibition of Trypanosoma cruzi cruzipain using Z-Phe-Arg-AMC as substrate at 100 uM at pH 5.3 after 10 mins by spectrofluorimetry relative to untreated control
[2] = target: Cruzipain (Trypanosoma cruzi) (UniProt P25779); experiment: Inhibition of Trypanosoma cruzi cruzipain using Z-Phe-Arg-AMC as substrate at pH 7.4 after 10 mins by spectrofluorimetry relative to untreated control
Trypanosoma cruzi = experiment: Antitrypanosomal activity against epimastigote stage of Trypanosoma cruzi Tulahuen 2 after 5 days relative to untreated control; format: functional; conditions: Tulahuen 2, 120 h, read-out: ID50 (the source's name)
[3] = Selectivity index, ratio of ID50 for human RBC to ID50 for epimastigote stage of Trypanosoma cruzi Tulahuen 2
[4] = Cytotoxicity against human RBC assessed as hemolytic activity after 24 hrs by spectrophotometry; format: cell-based, Erythrocyte; conditions: human red blood cells (RBC), read-out: ID50
[5] = target: Cruzipain (Trypanosoma cruzi) (UniProt P25779); experiment: Inhibition of Trypanosoma cruzi cruzipain using Z-Phe-Arg-AMC as substrate at 100 uM at pH 7.4 after 10 mins by spectrofluorimetry relative to untreated control
[6] = target: Cruzipain (Trypanosoma cruzi) (UniProt P25779); experiment: Inhibition of Trypanosoma cruzi cruzipain using Z-Phe-Arg-AMC as substrate at 100 uM at pH 5.3 after 10 mins by spectrofluorimetry in presence of Triton X-100 relative to untreated control

Cruzipain (Trypanosoma cruzi), sequence (P25779 123-467 limits assumed): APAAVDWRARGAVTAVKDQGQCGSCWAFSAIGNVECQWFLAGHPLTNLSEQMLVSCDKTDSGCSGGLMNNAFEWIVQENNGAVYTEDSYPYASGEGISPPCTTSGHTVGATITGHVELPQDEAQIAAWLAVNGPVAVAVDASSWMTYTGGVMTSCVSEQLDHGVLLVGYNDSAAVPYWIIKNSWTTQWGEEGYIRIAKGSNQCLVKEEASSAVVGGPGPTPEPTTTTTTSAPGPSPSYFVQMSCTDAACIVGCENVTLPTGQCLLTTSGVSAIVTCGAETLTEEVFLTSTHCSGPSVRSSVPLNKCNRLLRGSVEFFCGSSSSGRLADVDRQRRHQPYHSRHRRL

SMILES	inhibition [1] [%]	ID50 [2] [µM]	IC50 (Trypanosoma cruzi) [µM]	inhibition [5] [%]	inhibition [6] [%]	Selectivity Index [3]	HC50 at 24 h [4] [µM]
c1ccc(/N=C(/Nc2ccccc2)N2CCNCC2)cc1	6.3	–	–	–	–	–	–
c1ccc(N/C(=N/Cc2ccco2)N2CCNCC2)cc1	10	–	–	–	–	–	–
N=C(N/N=C/c1ccc(O)cc1)SCc1ccc2no[n+]([O-])c2c1	–	64.5	6.8	–	–	–	–
CC1(C)[N+]([O-])=c2ccc(CN3CCN(/C(=N/c4ccccc4)NCCc4ccccc4)CC3)cc2=[N+]1[O-]	–	–	1	30	–	> 50	> 50
C[C@@H]1[C@H](O)[C@@H](C)/C=C/C=C/C=C/C=C/C=C/C=C/C=C/[C@H](O[C@@H]2O[C@H](C)[C@@H](O)[C@H](N)[C@@H]2O)C[C@@H]2O[C@](O)(C[C@@H](O)C[C@@H](O)[C@H](O)CC[C@@H](O)C[C@@H](O)CC(=O)O[C@H]1C)C[C@H](O)[C@H]2C(=O)O	–	–	–	–	–	10	–
N=C(N)N/N=C/c1ccc(OCc2ccc3no[n+]([O-])c3c2)cc1	–	32	> 25	–	–	–	–
O=C(Cn1ccnc1[N+](=O)[O-])NCc1ccccc1 [BENZNIDAZOLE]	–	–	7.4	–	–	–	–
c1ccc(CC/N=C(/Nc2ccccc2)N2CCNCC2)cc1	3.2	–	–	–	–	–	–
CC/C(=N\N=C(\N)S)c1cccc(Br)c1	–	0.1	–	–	–	–	–
c1ccc(C/N=C(/Nc2ccccc2)N2CCNCC2)cc1	5.4	–	–	–	–	–	–
O=S(=O)(/C=C/c1ccc2no[n+]([O-])c2c1)c1ccccc1	–	> 50	1.6	–	–	–	–
CC1CS(=O)(=O)CCN1/N=C/c1ccc([N+](=O)[O-])o1 (stereo unspecified) [NIFURTIMOX]	–	–	7.7	–	–	> 13	> 100

Second part, led by results:

inhibition [1] [%]	ID50 [2] [µM]	IC50 (Trypanosoma cruzi) [µM]	inhibition [5] [%]	inhibition [6] [%]	SMILES	Selectivity Index [3]	HC50 at 24 h [4] [µM]
47	100	5.8	12	–	[O-][n+]1onc2ccc(CN3CCN(/C(=N/c4ccccc4)Nc4ccccc4)CC3)cc21	18	105
11	–	–	29	–	[O-][n+]1onc2ccc(CN3CCN(/C(=N/c4ccccc4)NCc4ccccc4)CC3)cc21	–	83
44	100	15	0.3	45	[O-][n+]1onc2ccc(CN3CCN(/C(=N/c4ccccc4)NCc4ccco4)CC3)cc21	> 13	> 200
–	–	–	34	–	CC1(C)[N+]([O-])=c2ccc(CN3CCN(/C(=N/c4ccccc4)NCc4ccccc4)CC3)cc2=[N+]1[O-]	–	> 36
–	–	–	15	–	CC1(C)[N+]([O-])=c2ccc(CN3CCN(/C(=N/c4ccccc4)NCc4ccco4)CC3)cc2=[N+]1[O-]	–	> 200
34	> 100	1.2	25	–	[O-][n+]1onc2ccc(CN3CCN(/C(=N/c4ccccc4)NCCc4ccccc4)CC3)cc21	31	37

Reference: ChEMBL document CHEMBL3217506, “Amidines bearing benzofuroxan or benzimidazole 1,3-dioxide core scaffolds as Trypanosoma cruzi-inhibitors: structural basis for their interactions with cruzipain” (Medchemcomm, 2012)
